Data: patent publication US20060005464A1, “Alkyl ethanolamine and biocide combination for hydrocarbon based fuels” (priority 2004, published 2006)

Experiments:
[1] = tested on: Mycobacterium smegmatis (ATCC # 19420); assay: End-point optical density of Mycobacterium smegmatis with N-alkyl alkanolamines (590 nm, 72 h); format: cell-based; conditions: 590 nm, after 72 hours, pH 8.5, tetrazolium dye
[2] = tested on: Pseudomonas aeruginosa (ATCC 10145); assay: Maximum growth slope of Pseudomonas aeruginosa with Proxel DB20 (BIT) plus alkanolamine; format: cell-based; conditions: pH 8.5, TSB, 24 hour
Experimental: A culture of Pseudomonas aeruginosa (ATCC 10145) at pH=8.5 in TSB (trypticase soy broth) media was prepared. The biocide Proxel DB20 (20% suspension of benzoisothiazolone (BIT) in water), as sold by Avecia, was added at varying concentrations in combination with 1000 ppm or 2000 ppm of the alkanolamines N-butylaminoethanol (BAE), 2-amino-2-methyl-1-propanol (AMP), dibutylaminoethanol (DBAE) or n-octylaminoethanol (OAE). Optical density measurements were taken every 15 minutes over a 24 hour time period (total of 96 data points). The maximum growth slope was calculated by taking the 10 contiguous data points that result in the highest growth slope (units of OD per time) over a 24 hour period. Those 10 data points were subjected to a least squares linear fit to calculate the maximum growth slope.

[3] = tested on: Aureobasidium pullulans (ATCC 12536); assay: End-point optical density of Aureobasidium pullulans with MIT/CMIT plus alkanolamine; format: cell-based; conditions: SAB media pH 8.5
Experimental: The impact of N-alkylalkanolamines on the control of the bacterial species Aureobasidium pullulans (ATCC 12536), a bacteria common in water-oil systems, was evaluated by measuring optical absorbance of samples treated with various concentrations of N-alkyl alkanolamines. […] SAB media at pH 8.5 (Tris buffer) was employed. Table 8 summarizes measurement of end-point optical density after 24 hours and 48 hours: […]

[4] = tested on: Pseudomonas Aeruginosa (ATCC27853); assay: Microtiter plate growth of Pseudomonas Aeruginosa with amines and GROTAN; format: cell-based; conditions: for growth of Pseudomonas Aeruginosa (Table 1 entry): pH 8.5, 24 hours; for enhancement in the biocidal effect of GROTAN: conclusion from Table 1
[5] = tested on: Pseudomonas aeruginosa (ATCC 10145); assay: Maximum growth slope of Pseudomonas aeruginosa with Bronopol plus alkanolamine; conditions: pH 8.5, TSB
[6] = tested on: mixed enteric bacteria (klebsiella pneumoniae, Proteus vulgarus, Citrobacter sp., Escherichia coli); assay: Maximum growth slope of mixed enteric bacteria culture with GROTAN plus alkanolamine; format: cell-based; conditions: pH 9.0, TSB with emulsified oil, 24 hour
Experimental: A culture of mixed enteric bacteria (klebsiella pneumoniae, Proteus vulgarus, Citrobacter sp., Escherichia coli) at pH=9.0 in TSB (trypticase soy broth) media mixed with emulsified oil was prepared. A biocide, GROTAN® {78.5% 1,3,5-(2-hydroxyethyl)-s-triazine solution in water} as sold by Troy Chemicals (Florham Park, N.J.) was added at varying concentrations to the culture in combination with 2500 ppm of one of the four alkanolamines, N-butylaminoethanol (BAE), diethanolamine (DEA), diglycolamine (DGA) or 2-amino-2-methyl-1-propanol (AMP). Optical density measurements were taken every 15 minutes over a 24 hour time period (total of 96 data points). The maximum growth slope was calculated by taking the 10 contiguous data points that result in the highest growth slope (units of OD per time) over the 24 hour period. Those 10 data points were subjected to a least squares linear fit to calculate the maximum growth slope.

[7] = tested on: Mycobacterium marinum (ATCC # 19420); assay: End-point optical density and MIC, Mycobacterium marinum (660 nm, 72 h); format: cell-based; conditions: pH 8.5; for end-point optical density: 660 nm, after 72 hours
Experimental: The impact of N-alkylalkanolamines on the control of the bacterial species Mycobacterium smegmatis (ATCC # 19420), a bacteria common in water-oil systems, was evaluated by measuring optical absorbance of samples treated with various alkyl ethanolaminesis DCHA=Dicyclohexylamine, OAE=Octylaminoethanol, ODEA=Octyldiethanolamine. Bacterial concentration was monitored indirectly via optical absorbance at 660 nm. The values reported are end-point optical densities in milliOD units after 48 hours. The media consisted of a standardized solution of clear nutrient broth (Middlebrook 7H10 with OADC supplement), amine, buffer (Tris) and water. The pH was adjusted initially to 8.5 with Tris buffer. The first column in the Table gives the amine concentration in ppm. The final two columns give data for cells that also contained 2 grams per liter of boric acid. In all cases, the values are averages of at least three replicates. The final row of the Table gives an estimate of the concentration range in which the amine in question starts to inhibit the growth of this bacterial species.
The impact of the N-alkylalkanolamines of Example 6 on the control of the bacterial species Mycobacterium marinum (ATCC # 19420), bacteria common in water-oil systems, was evaluated as described above in Example 6. Bacterial concentration in the experimental media was monitored indirectly via optical absorbance at 660 nm. The values reported are end-point optical densities in milliOD units after 72 hours. The media consisted of a standardized solution of clear nutrient broth (Middlebrook 7H10 with OADC supplement), amine, buffer (Tris) and water. The pH was adjusted initially to 8.5 with Tris buffer. The first column in the Table gives the amine concentration in ppm. In all cases, the values are averages of at least three replicates. The final row of the Table gives an estimate of the concentration range in which the amine in question starts to inhibit the growth of this bacterial species.

[8] = amine 1000 ppm plus BIT 150 ppm
[9] = amine 1000 ppm plus BIT 250 ppm
[10] = amine 1000 ppm plus BIT 500 ppm
[11] = amine 2000 ppm plus BIT 150 ppm
[12] = amine 2000 ppm plus BIT 250 ppm
[13] = amine 2000 ppm plus BIT 500 ppm
[14] = amine 1000 ppm plus 50 ppm MIT/CMIT, 24 hours
[15] = amine 1000 ppm plus 50 ppm MIT/CMIT, 48 hours
[16] = amine 2000 ppm plus 50 ppm MIT/CMIT, 24 hours
[17] = amine 2000 ppm plus 50 ppm MIT/CMIT, 48 hours
[18] = amine 2000 ppm plus GROTAN 100 ppm
[19] = amine 2000 ppm plus GROTAN 250 ppm
[20] = amine 2000 ppm plus GROTAN 500 ppm
[21] = amine 2000 ppm plus GROTAN 1000 ppm
[22] = amine 2000 ppm plus GROTAN 2000 ppm
[23] = amine 4000 ppm plus GROTAN 100 ppm
[24] = amine 4000 ppm plus GROTAN 250 ppm
[25] = amine 4000 ppm plus GROTAN 500 ppm
[26] = amine 4000 ppm plus GROTAN 1000 ppm
[27] = amine 4000 ppm plus GROTAN 2000 ppm
[28] = amine 2000 ppm plus Bronopol 5 ppm
[29] = amine 2000 ppm plus Bronopol 15 ppm
[30] = amine 2000 ppm plus Bronopol 25 ppm
[31] = amine 2000 ppm plus Bronopol 35 ppm
[32] = 2500 ppm amine plus GROTAN 650 ppm
[33] = 2500 ppm amine plus GROTAN 1650 ppm

SMILES: CC(C)(N)CO [AMP, 2-methyl-2-amino-1-propanol, reference compound]
- end-point optical density ([1]; amine 470 ppm): 2100 milliOD
- end-point optical density ([1]; amine 940 ppm): 2200 milliOD
- end-point optical density ([1]; amine 1880 ppm): 2100 milliOD
- end-point optical density ([1]; amine 3750 ppm): 2000 milliOD
- end-point optical density ([1]; amine 7500 ppm): 1700 milliOD
- maximum growth slope [2, 8]: 0.667 OD per time
- maximum growth slope [2, 9]: 0.508 OD per time
- maximum growth slope [2, 10]: 0.407 OD per time
- maximum growth slope ([2]; amine 1000 ppm, BIT 0 ppm): 0.478 OD per time
- maximum growth slope [2, 11]: 0.361 OD per time
- maximum growth slope [2, 12]: 0.320 OD per time
- maximum growth slope [2, 13]: 0.228 OD per time
- maximum growth slope ([2]; amine 2000 ppm, BIT 0 ppm): 0.29 OD per time
- end-point optical density [3, 14]: 0.3
- end-point optical density [3, 15]: 0.4
- end-point optical density [3, 16]: 0.3
- end-point optical density [3, 17]: 0.4
- growth of Pseudomonas Aeruginosa (Table 1 entry) [4, 18]: 0.72
- growth of Pseudomonas Aeruginosa (Table 1 entry) [4, 19]: 0.72
- growth of Pseudomonas Aeruginosa (Table 1 entry) [4, 20]: 0.72
- growth of Pseudomonas Aeruginosa (Table 1 entry) [4, 21]: 0.31
- growth of Pseudomonas Aeruginosa (Table 1 entry) [4, 22]: 0.35
- growth of Pseudomonas Aeruginosa (Table 1 entry) ([4]; amine 2000 ppm, GROTAN 0 ppm): 0.72
- growth of Pseudomonas Aeruginosa (Table 1 entry) [4, 23]: 0.72
- growth of Pseudomonas Aeruginosa (Table 1 entry) [4, 24]: 0.69
- growth of Pseudomonas Aeruginosa (Table 1 entry) [4, 25]: 0.39
- growth of Pseudomonas Aeruginosa (Table 1 entry) [4, 26]: 0.30
- growth of Pseudomonas Aeruginosa (Table 1 entry) [4, 27]: 0.37
- growth of Pseudomonas Aeruginosa (Table 1 entry) ([4]; amine 4000 ppm, GROTAN 0 ppm): 1.12
- enhancement in the biocidal effect of GROTAN [4]: not seen
- maximum growth slope [5, 28]: 0.345
- maximum growth slope [5, 29]: 0.327
- maximum growth slope [5, 30]: 0
- maximum growth slope [5, 31]: 0
- maximum growth slope [6, 32]: 0.32 OD per time
- maximum growth slope [6, 33]: 0.069 OD per time
- maximum growth slope ([6]; 2500 ppm amine, GROTAN 0 ppm): 1.065 OD per time

SMILES: CCCCNCCO [BAE, butylaminoethanol]
- end-point optical density ([1]; amine 470 ppm): 2200 milliOD
- end-point optical density ([1]; amine 940 ppm): 2100 milliOD
- end-point optical density ([1]; amine 1880 ppm): 2000 milliOD
- end-point optical density ([1]; amine 3750 ppm): 1900 milliOD
- end-point optical density ([1]; amine 7500 ppm): 1700 milliOD
- maximum growth slope [2, 8]: 0.317 OD per time
- maximum growth slope [2, 9]: 0.353 OD per time
- maximum growth slope [2, 10]: 0.281 OD per time
- maximum growth slope ([2]; amine 1000 ppm, BIT 0 ppm): 0.333 OD per time
- maximum growth slope [2, 11]: 0.134 OD per time
- maximum growth slope [2, 12]: 0.000 OD per time
- maximum growth slope [2, 13]: 0.000 OD per time
- maximum growth slope ([2]; amine 2000 ppm, BIT 0 ppm): 0.000 OD per time
- end-point optical density [3, 14]: 0.3
- end-point optical density [3, 15]: 0.3
- end-point optical density [3, 16]: 0.2
- end-point optical density [3, 17]: 0.2
- growth of Pseudomonas Aeruginosa (Table 1 entry) [4, 18]: 0.49
- growth of Pseudomonas Aeruginosa (Table 1 entry) [4, 19]: 0.45
- growth of Pseudomonas Aeruginosa (Table 1 entry) [4, 20]: 0.35
- growth of Pseudomonas Aeruginosa (Table 1 entry) [4, 21]: 0.30
- growth of Pseudomonas Aeruginosa (Table 1 entry) [4, 22]: 0.36
- growth of Pseudomonas Aeruginosa (Table 1 entry) ([4]; amine 2000 ppm, GROTAN 0 ppm): 0.37
- growth of Pseudomonas Aeruginosa (Table 1 entry) [4, 23]: 0.35
- growth of Pseudomonas Aeruginosa (Table 1 entry) [4, 24]: 0.32
- growth of Pseudomonas Aeruginosa (Table 1 entry) [4, 25]: 0.25
- growth of Pseudomonas Aeruginosa (Table 1 entry) [4, 26]: 0.29
- growth of Pseudomonas Aeruginosa (Table 1 entry) [4, 27]: 0.36
- growth of Pseudomonas Aeruginosa (Table 1 entry) ([4]; amine 4000 ppm, GROTAN 0 ppm): 0.49
- enhancement in the biocidal effect of GROTAN [4]: provide an enhancement in the biocidal effect of GROTAN®
- MIC (estimate of the concentration range in which the amine starts to inhibit growth) ([7]; 72 hours): >4000 ppm
- end-point optical density ([7]; amine 800 ppm): 0.7 milliOD
- end-point optical density ([7]; amine 1200 ppm): 0.7 milliOD
- end-point optical density ([7]; amine 2000 ppm): 0.6 milliOD
- end-point optical density ([7]; amine 4000 ppm): 0.6 milliOD
- maximum growth slope [5, 28]: 0.083
- maximum growth slope [5, 29]: 0
- maximum growth slope [5, 30]: 0
- maximum growth slope [5, 31]: 0
- maximum growth slope [6, 32]: 0.082 OD per time
- maximum growth slope [6, 33]: 0.0515 OD per time
- maximum growth slope ([6]; 2500 ppm amine, GROTAN 0 ppm): 0.2 OD per time
